ChEMBL document CHEMBL3603800, “Novel methyl substituted 1-(5,6-dihydro-[1,2,4]triazolo[4,3-a]pyrazin-7(8H)-yl)methanones are P2X7 antagonists” (Bioorg Med Chem Lett, 2015)
≈ marks a conversion by molar mass, not a printed value.

How the values were obtained:
[1] = Protein binding in human plasma; format: ADME, cell-free; settings: read-out: PPB (converted)
[2] = biological target: Voltage-gated inwardly rectifying potassium channel KCNH2 (Homo sapiens, UniProt Q12809); assay: Displacement of [3H]-astemizole from human ERG channel expressed in HEK293 cells by radioligand competition binding assay; format: cell-based
Sequence of Voltage-gated inwardly rectifying potassium channel KCNH2 (Q12809 whole entry): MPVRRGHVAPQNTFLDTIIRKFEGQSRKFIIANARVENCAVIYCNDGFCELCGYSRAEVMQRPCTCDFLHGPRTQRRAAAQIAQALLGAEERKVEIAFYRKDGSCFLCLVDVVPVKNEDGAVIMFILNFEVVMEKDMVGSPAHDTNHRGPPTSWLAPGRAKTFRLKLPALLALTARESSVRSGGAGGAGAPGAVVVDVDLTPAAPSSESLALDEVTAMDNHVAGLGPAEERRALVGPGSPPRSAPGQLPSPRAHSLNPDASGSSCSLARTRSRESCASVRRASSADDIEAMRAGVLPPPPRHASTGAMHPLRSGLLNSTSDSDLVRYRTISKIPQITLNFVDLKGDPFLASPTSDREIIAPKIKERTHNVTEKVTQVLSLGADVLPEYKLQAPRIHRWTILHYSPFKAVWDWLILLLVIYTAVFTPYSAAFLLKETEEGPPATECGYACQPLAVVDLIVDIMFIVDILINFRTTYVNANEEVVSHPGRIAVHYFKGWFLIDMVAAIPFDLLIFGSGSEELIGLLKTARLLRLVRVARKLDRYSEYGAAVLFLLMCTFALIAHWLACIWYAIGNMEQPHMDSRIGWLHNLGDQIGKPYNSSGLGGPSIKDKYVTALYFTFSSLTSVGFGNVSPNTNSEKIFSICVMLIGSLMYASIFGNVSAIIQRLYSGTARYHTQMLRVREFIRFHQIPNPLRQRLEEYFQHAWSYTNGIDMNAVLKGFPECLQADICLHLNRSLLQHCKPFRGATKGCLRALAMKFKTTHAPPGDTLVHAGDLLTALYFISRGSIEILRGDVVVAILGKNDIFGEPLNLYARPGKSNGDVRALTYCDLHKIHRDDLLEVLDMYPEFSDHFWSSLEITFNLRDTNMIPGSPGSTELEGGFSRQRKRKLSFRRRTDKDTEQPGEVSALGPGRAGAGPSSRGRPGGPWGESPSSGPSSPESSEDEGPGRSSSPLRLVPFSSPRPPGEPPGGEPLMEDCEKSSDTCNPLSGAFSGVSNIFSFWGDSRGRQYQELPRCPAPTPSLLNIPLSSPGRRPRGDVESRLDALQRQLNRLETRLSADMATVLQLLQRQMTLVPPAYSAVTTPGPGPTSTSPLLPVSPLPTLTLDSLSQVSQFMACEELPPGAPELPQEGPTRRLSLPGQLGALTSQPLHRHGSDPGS

[3] = Protein binding in rat plasma; format: ADME, cell-free; settings: read-out: PPB (converted)
[4] = Apparent permeability from apical to basolateral side in human Caco2 cells; format: ADME, cell-based; settings: Caco-2
Rattus norvegicus [5] = assay: Ex-vivo P2X7 receptor occupancy in Sprague-Dawley rat brain assessed as inhibition of [3H]A804598 binding at 30 mg/kg, po after 2 hrs by autoradiographic analysis; format: functional
[6] = Solubility in pH 7 solution; format: physicochemical
[7] = Drug level in plasma of Sprague-Dawley rat at 30 mg/kg, po after 0.5 hrs; format: ADME, organism-based
[8] = Drug level in brain of Sprague-Dawley rat at 30 mg/kg, po after 2 hrs; format: ADME, organism-based; settings: read-out: Drug uptake
Rattus norvegicus [9] = assay: Ex-vivo P2X7 receptor occupancy in Sprague-Dawley rat brain assessed as inhibition of [3H]A804598 binding at 30 mg/kg, po after 0.5 hrs by autoradiographic analysis; format: functional
[10] = Protein binding in rat brain; format: ADME, tissue-based; settings: read-out: PB (converted)
[11] = Drug level in plasma of Sprague-Dawley rat at 30 mg/kg, po after 2 hrs; format: ADME, organism-based
[12] = Drug level in brain of Sprague-Dawley rat at 30 mg/kg, po after 0.5 hrs; format: ADME, organism-based; settings: read-out: Drug uptake
[13] = Apparent permeability from basolateral to apical side in human Caco2 cells; format: ADME, cell-based; settings: Caco-2
Rattus norvegicus [14] = assay: Ex-vivo P2X7 receptor occupancy in Sprague-Dawley rat brain assessed as inhibition of [3H]A804598 binding at 10 mg/kg, po after 2 hrs by autoradiographic analysis; format: functional
[15] = Drug level in plasma of Sprague-Dawley rat at 10 mg/kg, after 0.5 hrs
[16] = Drug level in brain of Sprague-Dawley rat at 10 mg/kg, sc after 0.5 hrs; settings: read-out: Drug uptake
[17] = Drug level in plasma of Sprague-Dawley rat at 10 mg/kg, sc after 2 hrs
Rattus norvegicus [18] = assay: Ex-vivo P2X7 receptor occupancy in Sprague-Dawley rat brain assessed as inhibition of [3H]A804598 binding at 10 mg/kg, sc after 0.5 hrs by autoradiographic analysis

SMILES: C[C@@H]1c2nnc(-c3ccccn3)n2CCN1C(=O)c1cccc(Cl)c1Cl
- fraction unbound [1]: 0.175
- IC50 [2]: > 10 µM
- fraction unbound [3]: 0.069
- Papp A→B [4]: 73.4 ×10⁻⁶ cm/s
- Occ (Rattus norvegicus [5]): 56%
- solubility [6]: > 400 µM
- concentration at 0.5 h [7]: 2520 ng/mL
- concentration at 2 h [8]: 2500 ng/mL
- Occ (Rattus norvegicus [9]): 68%
- fraction unbound [10]: 0.11
- concentration at 2 h [11]: 942 ng/mL
- concentration at 0.5 h [12]: 5510 ng/mL
- Papp B→A [13]: 52.1 ×10⁻⁶ cm/s

SMILES: C[C@H]1Cn2c(nnc2-c2ccc(F)cc2)CN1C(=O)c1cccc(Cl)c1Cl
- fraction unbound [1]: 0.115
- fraction unbound [3]: 0.078
- Papp A→B [4]: 43.3 ×10⁻⁶ cm/s
- Occ (Rattus norvegicus [5]): 5%
- solubility [6]: 158 µM (≈ 64 µg/mL)
- concentration at 0.5 h [7]: 252 ng/mL
- concentration at 2 h [8]: 142 ng/mL
- Occ (Rattus norvegicus [9]): 92%
- fraction unbound [10]: 0.09
- concentration at 2 h [11]: 27 ng/mL
- concentration at 0.5 h [12]: 1560 ng/mL
- Papp B→A [13]: 41.6 ×10⁻⁶ cm/s

SMILES: C[C@H]1Cn2c(nnc2-c2ccc(F)cc2)CN1C(=O)c1cccc(C(F)(F)F)c1Cl
- fraction unbound [1]: 0.131
- fraction unbound [3]: 0.078
- Papp A→B [4]: 37.3 ×10⁻⁶ cm/s
- Occ (Rattus norvegicus [5]): 73%
- concentration at 0.5 h [7]: 1460 ng/mL
- concentration at 2 h [8]: 12600 ng/mL
- Occ (Rattus norvegicus [9]): 89%
- fraction unbound [10]: 0.07
- concentration at 2 h [11]: 2680 ng/mL
- concentration at 0.5 h [12]: 6740 ng/mL
- Papp B→A [13]: 53.2 ×10⁻⁶ cm/s

SMILES: C[C@H]1Cn2c(nnc2-c2cnccn2)CN1C(=O)c1cccc(C(F)(F)F)c1Cl
- fraction unbound [1]: 0.302
- fraction unbound [3]: 0.302

SMILES: C[C@H]1Cn2c(nnc2-c2ccccn2)CN1C(=O)c1cccc(Cl)c1Cl
- fraction unbound [1]: 0.51
- fraction unbound [3]: 0.449

SMILES: COc1ccnc(-c2nnc3n2C[C@H](C)N(C(=O)c2cccc(Cl)c2Cl)C3)c1
- fraction unbound [1]: 0.174
- Occ (Rattus norvegicus [14]): 71%
- IC50 [2]: > 10 µM
- concentration at 0.5 h [15]: 1080 ng/mL
- fraction unbound [3]: 0.07
- concentration at 0.5 h [16]: 3880 ng/mL
- solubility [6]: 260 µM (≈ 109 µg/mL)
- concentration at 2 h [17]: 374 ng/mL
- Occ (Rattus norvegicus [18]): 78%

SMILES: C[C@H]1Cn2c(nnc2-c2cc(F)ccn2)CN1C(=O)c1cccc(Cl)c1Cl
- fraction unbound [1]: 0.254
- fraction unbound [3]: 0.09
- solubility [6]: 350 µM (≈ 142 µg/mL)
